# Test results: US20230365592A1 (Agios Pharmaceuticals, Inc., priority 2022, published 2023)
# Molecular target: T1, human PAH with the R408W mutation (Homo sapiens, UniProt P00439, R408W)
# T1 construct: expressed in transfected cells
# T1 sequence (P00439 1-452 R408W): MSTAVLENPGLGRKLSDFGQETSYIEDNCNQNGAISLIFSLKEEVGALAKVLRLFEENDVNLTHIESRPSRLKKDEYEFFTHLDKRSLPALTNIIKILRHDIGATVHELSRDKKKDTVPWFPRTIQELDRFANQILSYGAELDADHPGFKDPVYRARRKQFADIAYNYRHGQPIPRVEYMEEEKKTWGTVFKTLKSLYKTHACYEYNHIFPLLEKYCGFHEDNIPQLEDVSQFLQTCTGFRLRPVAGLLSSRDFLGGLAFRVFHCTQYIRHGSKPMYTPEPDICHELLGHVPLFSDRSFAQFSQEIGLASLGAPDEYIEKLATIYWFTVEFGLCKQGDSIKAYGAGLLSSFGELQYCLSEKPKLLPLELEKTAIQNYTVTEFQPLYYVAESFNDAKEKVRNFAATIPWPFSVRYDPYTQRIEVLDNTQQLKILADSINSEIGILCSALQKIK
# Assay: Cell Based Phenylalanine Flux Assay;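 note: after compound treatment, cells received sepiapterin plus isotope-labelled Phenylalanine for 4 hours, then labelled Tyrosine in the medium was quantified, 10-point 2-fold dilution series run in duplicate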
# Conditions: A375 cells expressing human R408W PAH; 24 hrs compound incubation; 13C-Tyrosine by LC-MS; average where tested multiple times; read-out: AC50
row,AC50,SMILES
1,< 0.5 µM,"O=C(c1nnc(-c2ncccc2F)o1)N1CCc2[nH]cnc2[C@H]1c1cc2cccc(Cl)n2n1 [Example 982, (S)-(4-(7-chloropyrazolo[1,5-a]pyridin-2-yl)-6,7-dihydro-1H-imidazo[4,5-c]pyridin-5(4H)-yl)(5-(3-fluoropyridin-2-yl)-1,3,4-oxadiazol-2-yl)methanone]"
2,> 5 µM,"O=C(c1nnc(-c2ncccc2F)o1)N1CCc2[nH]cnc2[C@@H]1c1cc2cccc(Cl)n2n1 [Example 983, (R)-(4-(7-chloropyrazolo[1,5-a]pyridin-2-yl)-6,7-dihydro-1H-imidazo[4,5-c]pyridin-5(4H)-yl)(5-(3-fluoropyridin-2-yl)-1,3,4-oxadiazol-2-yl)methanone]"
3,1 to 5 µM,"O=C(c1nnc(-c2cnn(C(F)F)c2)o1)N1CCc2[nH]cnc2[C@@H]1c1cc2cccc(F)n2n1 [Example 985, (R)-(5-(1-(difluoromethyl)-1H-pyrazol-4-yl)-1,3,4-oxadiazol-2-yl)(4-(7-fluoropyrazolo[1,5-a]pyridin-2-yl)-6,7-dihydro-1H-imidazo[4,5-c]pyridin-5(4H)-yl)methanone]"
4,1 to 5 µM,"CC(C)(F)c1nnc(C(=O)N2CCc3[nH]cnc3[C@@H]2c2cc3cccc(F)n3n2)o1 [Example 986, (R)-(5-(2-fluoropropan-2-yl)-1,3,4-oxadiazol-2-yl)(4-(7-fluoropyrazolo[1,5-a]pyridin-2-yl)-6,7-dihydro-1H-imidazo[4,5-c]pyridin-5(4H)-yl)methanone]"
5,0.5 to 1 µM,"CC(C)(F)c1nnc(C(=O)N2CCc3[nH]cnc3[C@H]2c2cc3cccc(F)n3n2)o1 [Example 987, (S)-(5-(2-fluoropropan-2-yl)-1,3,4-oxadiazol-2-yl)(4-(7-fluoropyrazolo[1,5-a]pyridin-2-yl)-6,7-dihydro-1H-imidazo[4,5-c]pyridin-5(4H)-yl)methanone]"
6,< 0.5 µM,"Cc1cccn2nc([C@@H]3c4nc[nH]c4CCN3C(=O)c3nnc(-c4cnn(C)c4C)o3)cc12 [Example 988, (S)-(5-(1,5-dimethyl-1H-pyrazol-4-yl)-1,3,4-oxadiazol-2-yl)(4-(4-methylpyrazolo[1,5-a]pyridin-2-yl)-6,7-dihydro-1H-imidazo[4,5-c)pyridin-5(4H)-yl)methanone]"

# Second part, the compound before the results:
row,SMILES,AC50
1,"Cc1ccc2cc([C@@H]3c4nc[nH]c4CCN3C(=O)c3nnc(C4CC4)o3)nn2c1 [Example 966, (S)-(5-cyclopropyl-1,3,4-oxadiazol-2-yl)(4-(6-methylpyrazolo[1,5-a]pyridin-2-yl)-6,7-dihydro-1H-imidazo[4,5-c]pyridin-5(4H)-yl)methanone]",0.5 to 1 µM
2,"Cc1ccc2cc([C@H]3c4nc[nH]c4CCN3C(=O)c3nnc(C4CC4)o3)nn2c1 [Example 967, (R)-(5-cyclopropyl-1,3,4-oxadiazol-2-yl)(4-(6-methylpyrazolo[1,5-a]pyridin-2-yl)-6,7-dihydro-1H-imidazo[4,5-c]pyridin-5(4H)-yl)methanone]",> 5 µM
3,"CC(C)(F)c1nnc(C(=O)N2CCc3[nH]cnc3[C@@H]2c2cc3cccc(Cl)n3n2)o1 [Example 968, (R)-(4-(7-chloropyrazolo[1,5-a]pyridin-2-yl)-6,7-dihydro-1H-imidazo[4,5-c]pyridin-5(4H)-yl)(5-(2-fluoropropan-2-yl)-1,3,4-oxadiazol-2-yl)methanone]",1 to 5 µM
4,"COc1cccn2nc([C@H]3c4nc[nH]c4CCN3C(=O)c3nnc(C(C)(C)F)o3)cc12 [Example 970, (R)-(5-(2-fluoropropan-2-yl)-1,3,4-oxadiazol-2-yl)(4-(4-methoxypyrazolo[1,5-a]pyridin-2-yl)-6,7-dihydro-1H-imidazo[4,5-c]pyridin-5(4H)-yl)methanone]",> 5 µM
5,"COc1cccn2nc([C@@H]3c4nc[nH]c4CCN3C(=O)c3nnc(C(C)(C)F)o3)cc12 [Example 971, (S)-(5-(2-fluoropropan-2-yl)-1,3,4-oxadiazol-2-yl)(4-(4-methoxypyrazolo[1,5-a]pyridin-2-yl)-6,7-dihydro-1H-imidazo[4,5-c]pyridin-5(4H)-yl)methanone]",0.5 to 1 µM
6,"Cc1c(-c2nnc(C(=O)N3CCc4[nH]cnc4[C@H]3c3cc4ccccn4n3)o2)cnn1C [Example 972, (S)-(5-(1,5-dimethyl-1H-pyrazol-4-yl)-1,3,4-oxadiazol-2-yl)(4-(pyrazolo[1,5-a]pyridin-2-yl)-6,7-dihydro-1H-imidazo[4,5-c)pyridin-5(4H)-yl)methanone]",< 0.5 µM
7,"Cc1c(-c2nnc(C(=O)N3CCc4[nH]cnc4[C@@H]3c3cc4ccccn4n3)o2)cnn1C [Example 973, (R)-(5-(1,5-dimethyl-1H-pyrazol-4-yl)-1,3,4-oxadiazol-2-yl)(4-(pyrazolo[1,5-a]pyridin-2-yl)-6,7-dihydro-1H-imidazo[4,5-c]pyridin-5(4H)-yl)methanone]",> 5 µM
8,"O=C(c1nnc(-c2ccccn2)o1)N1CCc2[nH]cnc2[C@@H]1c1cc2cccc(F)n2n1 [Example 974, (R)-(4-(7-fluoropyrazolo[1,5-a]pyridin-2-yl)-6,7-dihydro-1H-imidazo[4,5-c]pyridin-5(4H)-yl)(5-(pyridin-2-yl)-1,3,4-oxadiazol-2-yl)methanone]",1 to 5 µM
9,"O=C(c1nnc(-c2ccccn2)o1)N1CCc2[nH]cnc2[C@H]1c1cc2cccc(F)n2n1 [Example 975, (S)-(4-(7-fluoropyrazolo[1,5-a]pyridin-2-yl)-6,7-dihydro-1H-imidazo[4,5-c]pyridin-5(4H)-yl)(5-(pyridin-2-yl)-1,3,4-oxadiazol-2-yl)methanone]",< 0.5 µM
10,"Cn1ccc(-c2nnc(C(=O)N3CCc4[nH]cnc4[C@H]3c3cc4cccc(Cl)n4n3)o2)n1 [Example 976, (S)-(4-(7-chloropyrazolo[1,5-a]pyridin-2-yl)-6,7-dihydro-1H-imidazo[4,5-c)pyridin-5(4H)-yl)(5-(1-methyl-1H-pyrazol-3-yl)-1,3,4-oxadiazol-2-yl)methanone]",< 0.5 µM
11,"Cn1ccc(-c2nnc(C(=O)N3CCc4[nH]cnc4[C@@H]3c3cc4cccc(Cl)n4n3)o2)n1 [Example 977, (R)-(4-(7-chloropyrazolo[1,5-a]pyridin-2-yl)-6,7-dihydro-1H-imidazo(4,5-c]pyridin-5(4H)-yl)(5-(1-methyl-1H-pyrazol-3-yl)-1,3,4-oxadiazol-2-yl)methanone]",> 5 µM
12,"O=C(c1nnc(-c2cnccn2)o1)N1CCc2[nH]cnc2[C@@H]1c1cc2cccc(Cl)n2n1 [Example 978, (R)-(4-(7-chloropyrazolo[1,5-a]pyridin-2-yl)-6,7-dihydro-1H-imidazo[4,5-c]pyridin-5(4H)-yl)(5-(pyrazin-2-yl)-1,3,4-oxadiazol-2-yl)methanone]",1 to 5 µM
13,"O=C(c1nnc(C2CC2)o1)N1CCc2[nH]cnc2[C@H]1c1cc2c(C(F)F)cccn2n1 [Example 980, (S)-(5-cyclopropyl-1,3,4-oxadiazol-2-yl)(4-(4-(difluoromethyl)pyrazolo[1,5-a]pyridin-2-yl)-6,7-dihydro-1H-imidazo[4,5-c]pyridin-5(4H)-yl)methanone]",< 0.5 µM
14,"O=C(c1nnc(C2CC2)o1)N1CCc2[nH]cnc2[C@@H]1c1cc2c(C(F)F)cccn2n1 [Example 981, (R)-(5-cyclopropyl-1,3,4-oxadiazol-2-yl)(4-(4-(difluoromethyl)pyrazolo[1,5-a]pyridin-2-yl)-6,7-dihydro-1H-imidazo[4,5-c]pyridin-5(4H)-yl)methanone]",1 to 5 µM
